How the values were obtained:
Format in all cases: biochemical
recombinant FAMIN [1] = molecular target: T1, recombinant FAMIN (Homo sapiens, UniProt Q8IV20); assay: FAMIN adenosine deaminase activity: inosine generated from adenosine by recombinant FAMIN; conditions: 10 μg recombinant FAMIN, 10 μM adenosine in PBS, 1 h at 37° C.; FIG. 11A
T1 sequence (Q8IV20 1-430): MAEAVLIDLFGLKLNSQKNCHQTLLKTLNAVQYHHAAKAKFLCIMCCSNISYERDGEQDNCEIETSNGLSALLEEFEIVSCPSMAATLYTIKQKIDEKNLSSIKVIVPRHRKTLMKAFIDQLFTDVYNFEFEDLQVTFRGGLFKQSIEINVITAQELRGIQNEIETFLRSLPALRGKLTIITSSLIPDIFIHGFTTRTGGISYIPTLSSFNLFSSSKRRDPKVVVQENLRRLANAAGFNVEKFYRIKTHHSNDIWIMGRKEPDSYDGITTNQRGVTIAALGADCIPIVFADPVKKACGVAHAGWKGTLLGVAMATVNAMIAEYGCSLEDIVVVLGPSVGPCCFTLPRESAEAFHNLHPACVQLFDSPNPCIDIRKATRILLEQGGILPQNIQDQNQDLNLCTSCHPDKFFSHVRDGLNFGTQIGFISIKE
Description: (§1) FIGS. 11B and 11C show levels of adenine and ribose-1-phosphate (R-1-P) in the reaction described in FIG. 11A.

recombinant FAMIN [2] = molecular target: T1, recombinant FAMIN; assay: FAMIN adenosine phosphorylase activity: adenine and R-1-P from adenosine with recombinant FAMIN; conditions: 10 μg recombinant FAMIN, 10 μM adenosine in PBS, 1 h at 37° C., FIG. 11B
Description: as §1

recombinant FAMIN [3] = molecular target: T1, recombinant FAMIN; assay: FAMIN purine nucleoside phosphorylase activity: hypoxanthine and R-1-P from inosine with recombinant FAMIN; conditions: 10 μg recombinant FAMIN, 10 μM inosine in PBS, 1 h at 37° C.; FIG. 11D, E
Description: as §1

CCCCCC[C@@H]([C@@H](C)O)n1cnc2c(N)ncnc21 (racemic) [EHNA, erythro-9-(2-hydroxy-3-nonyl) adenine]
effect on FAMIN's adenosine deaminase activity (generation of inosine from adenosine) (recombinant FAMIN [1]): inhibit FAMIN's adenosine deaminase activity

Nc1nc2c(nc(N)n2[C@@H]2O[C@H](CO)[C@@H](O)[C@H]2O)c(=O)[nH]1 [8-aminoguanosine]
effect on FAMIN's adenosine phosphorylase activity (adenine and R-1-P levels) (recombinant FAMIN [2]): leaving FAMIN's adenosine phosphorylase activity intact | effect on FAMIN's purine nucleoside phosphorylase activity (hypoxanthine and R-1-P levels) (recombinant FAMIN [3]): active on FAMIN's purine nucleoside phosphorylase activity

Reference: patent US12686866B2, “Methods of treating cancer by suppression of FAMIN expression” (Cambridge Enterprise Limited, priority 2018, dated 2026)
